Reference: the supplement of paper PMC10307832

Key:
Experiment in all cases: relative viability (nuclei count vs DMSO), 5 days (fraction); higher = more cells survive
PAC-1 + AZD7762 = compound: C=CCc1cccc(/C=N/NC(=O)CN2CCN(Cc3ccccc3)CC2)c1O [PAC-1] + NC(=O)Nc1cc(-c2cccc(F)c2)sc1C(=O)N[C@H]1CCCNC1 [AZD7762] (partner 0.2 µM)
Procedure, shortened: (§1)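 One day after seeding in 1536-well plates, lung cancer cell lines were dosed by pin tool. Dosing was either single-drug or a fixed anchor-drug dose plus five library-drug doses (not always all listed) in √10 steps. After 5 days, nuclei were stained in one fix-and-stain step and counted on 4× images, and relative viability is the nuclei count of treated wells over that of vehicle wells, given as the median of duplicate plates.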

BMX-IN-1 + Linsitinib = compound: C=CC(=O)Nc1cc(-n2c(=O)ccc3cnc4ccc(-c5ccc(NS(C)(=O)=O)cc5)cc4c32)ccc1C [BMX-IN-1] + C[C@]1(O)C[C@@H](c2nc(-c3ccc4ccc(-c5ccccc5)nc4c3)c3c(N)nccn32)C1 [Linsitinib] (partner 1 µM)
Procedure, shortened: as §1

PAC-1 + Pemetrexed = compound: C=CCc1cccc(/C=N/NC(=O)CN2CCN(Cc3ccccc3)CC2)c1O [PAC-1] + Nc1nc2[nH]cc(CCc3ccc(C(=O)N[C@@H](CCC(=O)O)C(=O)O)cc3)c2c(=O)[nH]1 [Pemetrexed] (partner 0.2 µM)
Procedure, shortened: as §1

PAC-1 + OSI-027 = compound: C=CCc1cccc(/C=N/NC(=O)CN2CCN(Cc3ccccc3)CC2)c1O [PAC-1] + COc1cccc2cc(-c3nc([C@H]4CC[C@H](C(=O)O)CC4)n4ncnc(N)c34)[nH]c12 [OSI-027] (partner 0.5 µM)
Procedure, shortened: as §1

PAC-1 + Luminespib = compound: C=CCc1cccc(/C=N/NC(=O)CN2CCN(Cc3ccccc3)CC2)c1O [PAC-1] + CCNC(=O)c1noc(-c2cc(C(C)C)c(O)cc2O)c1-c1ccc(CN2CCOCC2)cc1 [Luminespib] (partner 0.01 µM)
Procedure, shortened: as §1

Row | Cell Line | relative viability (PAC-1 + AZD7762; first compound 0.02 µM) | relative viability (PAC-1 + AZD7762; first compound 0.06325 µM) | relative viability (PAC-1 + AZD7762; first compound 0.2 µM) | relative viability (PAC-1 + AZD7762; first compound 2 µM) | relative viability (BMX-IN-1 + Linsitinib; first compound 0.02 µM) | relative viability (BMX-IN-1 + Linsitinib; first compound 0.2 µM) | relative viability (BMX-IN-1 + Linsitinib; first compound 0.6325 µM) | relative viability (BMX-IN-1 + Linsitinib; first compound 2 µM) | relative viability (PAC-1 + Pemetrexed; first compound 0.02 µM) | relative viability (PAC-1 + Pemetrexed; first compound 0.06325 µM) | relative viability (PAC-1 + Pemetrexed; first compound 0.2 µM) | relative viability (PAC-1 + Pemetrexed; first compound 2 µM) | relative viability (PAC-1 + OSI-027; first compound 0.02 µM) | relative viability (PAC-1 + OSI-027; first compound 0.06325 µM) | relative viability (PAC-1 + OSI-027; first compound 0.2 µM) | relative viability (PAC-1 + OSI-027; first compound 2 µM) | relative viability (PAC-1 + Luminespib; first compound 0.02 µM) | relative viability (PAC-1 + Luminespib; first compound 0.06325 µM) | relative viability (PAC-1 + Luminespib; first compound 0.2 µM) | relative viability (PAC-1 + Luminespib; first compound 2 µM)
1 | 201T | 0.625 | 0.59 | 0.571 | 0.567 | 1.13 | 1.02 | 1.04 | 1.01 | 0.316 | 0.303 | 0.314 | 0.334 | 0.702 | 0.754 | 0.848 | 0.839 | 1.03 | 1.05 | 1.09 | 1.04
2 | A549 | – | – | – | – | 0.627 | 0.973 | 0.808 | 0.552 | – | – | – | – | – | – | – | – | – | – | – | –
3 | A-427 | 0.774 | 0.734 | 0.713 | 0.702 | 1.19 | 1.09 | 1.14 | 1.12 | 0.992 | 1.01 | 1.09 | 0.977 | 0.434 | 0.481 | 0.47 | 0.476 | 1.13 | 0.769 | 0.988 | 0.951
4 | ABC-1 | 0.952 | 0.871 | 0.628 | 0.975 | 0.993 | 0.807 | 0.775 | 0.764 | – | – | – | – | 0.478 | 0.44 | 0.468 | 0.457 | 0.526 | 0.803 | 0.682 | 0.519
5 | BEN | 0.712 | 0.626 | 0.618 | 0.828 | 1.08 | 1.13 | 0.995 | 0.942 | 0.719 | 0.74 | 0.718 | 0.655 | 0.303 | 0.264 | 0.291 | 0.289 | 0.594 | 0.282 | 0.535 | 0.273
6 | CAL-12T | 0.579 | 0.621 | 0.626 | 0.6 | 0.849 | 0.811 | 0.932 | 1.01 | 1.22 | 1.23 | 1.15 | 1.16 | 0.673 | 0.723 | 0.567 | 0.645 | 0.268 | 0.517 | 0.381 | 0.247
7 | COR-L23 | – | – | – | – | 1.62 | 1.11 | 0.994 | 1.01 | 0.206 | 0.192 | – | 0.206 | 0.885 | 0.771 | 0.724 | 0.698 | 0.569 | 0.71 | 0.629 | 0.625
8 | COR-L 105 | – | – | – | – | 0.801 | 0.875 | 1.01 | 0.877 | 0.983 | 1.1 | 1.04 | 1.05 | 0.756 | 0.669 | 0.615 | 0.756 | 0.769 | 0.788 | 0.627 | 0.725
9 | Calu-6 | – | – | – | – | 1.05 | 0.984 | 0.998 | 1.03 | – | – | – | – | – | – | – | – | – | – | – | –
10 | ChaGo-K-1 | 0.858 | 0.907 | 0.861 | 0.9 | – | – | – | – | 0.256 | 0.252 | 0.258 | 0.265 | 0.623 | 0.617 | 0.57 | 0.635 | 0.645 | 0.737 | 0.645 | 0.715
11 | EBC-1 | – | – | – | – | 1.08 | 0.802 | 0.983 | 1.04 | – | – | – | – | – | – | – | – | – | – | – | –
12 | EKVX | 0.638 | 0.75 | 0.664 | 0.62 | 1.14 | 1.17 | 1.13 | 1.02 | 0.356 | 0.407 | 0.355 | 0.395 | 0.744 | 0.674 | 0.696 | 0.702 | 0.917 | 0.855 | 0.815 | 0.837
13 | EMC-BAC-2 | 1.13 | 1.24 | 1.19 | 1.15 | 0.916 | 0.782 | 0.84 | 0.802 | 0.49 | 0.479 | 0.46 | 0.464 | 0.367 | 0.363 | 0.371 | 0.382 | 1.19 | 1.17 | 1.18 | 1.15
14 | EPLC-272H | 0.177 | 0.295 | 0.134 | 0.22 | 1.19 | 1.35 | 1.42 | 1.01 | 0.355 | 0.32 | 0.341 | 0.348 | 0.312 | 0.27 | 0.22 | 0.262 | 0.296 | 0.262 | 0.202 | 0.277
15 | H3255 | 0.993 | 0.802 | 0.772 | 0.931 | 1.07 | 1.01 | 0.965 | 0.912 | 0.601 | 0.521 | 0.495 | 0.596 | 0.604 | 0.487 | 0.558 | 0.611 | 0.905 | 0.852 | 0.672 | 0.804
16 | HARA | 0.229 | 0.304 | 0.0838 | 0.457 | 1.2 | 1.21 | 0.851 | 0.886 | 0.23 | 0.234 | 0.264 | 0.239 | 0.487 | 0.54 | 0.426 | 0.504 | 0.554 | 0.674 | 0.793 | 0.937
17 | HCC-15 | 1.34 | 1.35 | 0.884 | 1.35 | 0.918 | 0.984 | 0.899 | 0.821 | 0.216 | 0.234 | 0.247 | 0.22 | 0.668 | 0.726 | 0.672 | 0.684 | 0.447 | 0.37 | 0.355 | 0.279
18 | HCC-44 | 1.09 | 0.998 | 1.03 | 0.992 | 0.804 | 0.735 | 0.702 | 0.642 | 0.649 | 0.615 | 0.588 | 0.684 | 0.486 | 0.62 | 0.607 | 0.585 | 1.04 | 1.14 | 1.01 | 0.964
19 | HCC-78 | 0.676 | 0.558 | 0.596 | 0.573 | 0.572 | 0.571 | 0.582 | 0.643 | 0.915 | 0.904 | 0.85 | 0.928 | 0.336 | 0.335 | 0.376 | 0.396 | – | – | – | –
